Experimental data as given in US20100311729A1, “Substituted imidazopyridazines and pyrrolopyrimidines as lipid kinase inhibitors” (priority 2007, published 2010).
pIC50: −log10 of the molar value.

Columns and labels:
[1] = target: T1, PI3K delta (Homo sapiens, UniProt O00329); assay: PI3 kinase assay (Kinase-Glo luminescence), PI3K delta; type: biochemical; details: Enzymatic Data; read-out: PI3K delta IC50 [umol]
T1 construct: for the full-length p110-d subunit are generated and fused by overlapping PCR; His tag (C); made in house; host or cells: baculovirus; Tn5 (Trichoplusia ni) or TiniPro insect cells
In short: (§1)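 Recombinant PI3K constructs (alfa 10 nM, delta 10 nM, gamma 150 nM) with 1 μM ATP and 10 μg/mL phosphatidylinositol in Tris pH 7.5, MgCl2, NaCl, CHAPS, DTT; 60 min (alfa, delta) or 120 min (gamma) at room temperature. ATP depletion read by Kinase-Glo luminescence; IC50 from 4-parameter logistic fit over 8 concentrations.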

[2] = target: T2, PI3K beta (Homo sapiens, UniProt P42338); assay: PI3 kinase assay (Kinase-Glo luminescence), PI3K beta; type: biochemical; details: Enzymatic Data; read-out: PI3K beta IC50 [umol]
T2 construct: for the full-length p110-b subunit are generated and fused by overlapping PCR; His tag (C); made in house; host or cells: baculovirus; Tn5 (Trichoplusia ni) or TiniPro insect cells
In short: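 PI3Kβ (25 nM, BV-949) with 10 μg/mL phosphatidylinositol in Tris pH 7.5/MgCl2/NaCl/CHAPS/DTT buffer; reaction started with 1 μM ATP, 60 min at room temperature. ATP depletion read by Kinase-Glo luminescence; 8-point dilutions, IC50 by four-parameter logistic fit.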

[3] = target: T3, PI3K alfa (Homo sapiens, UniProt P42336); assay: PI3 kinase assay (Kinase-Glo luminescence), PI3K alfa; type: biochemical; details: Enzymatic Data; read-out: PI3K alfa IC50 [umol]
T3 construct: for the p110-a subunit (with a deletion of the first 20 amino acids); His tag (C); made in house; host or cells: baculovirus; Tn5 (Trichoplusia ni) or TiniPro insect cells
In short: as §1

[4] = target: T4, PI3K gamma (Homo sapiens, UniProt P48736); assay: PI3 kinase assay (Kinase-Glo luminescence), PI3K gamma; type: biochemical; details: Enzymatic Data; read-out: PI3K gamma IC50 [umol]
T4 construct: PI3Kγ BV-950 p110g(D144aa)-C-Term His Tag; His tag (C); made in house; host or cells: construct from the Roger Williams lab (MRC LMB) in pVL1393; baculovirus; Tn5 (Trichoplusia ni) or TiniPro insect cells
In short: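 Percent inhibition at eight concentrations (typically 10 to 0.003 […]) fitted to a four-parameter logistic model to give IC50. Reaction initiated with ATP; final ATP 1 μM and phosphatidylinositol 10 μg/mL; ATP consumption read by Kinase-Glo luminescence.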

T3 sequence (P42336 with tags, fused parts or gaps limits assumed): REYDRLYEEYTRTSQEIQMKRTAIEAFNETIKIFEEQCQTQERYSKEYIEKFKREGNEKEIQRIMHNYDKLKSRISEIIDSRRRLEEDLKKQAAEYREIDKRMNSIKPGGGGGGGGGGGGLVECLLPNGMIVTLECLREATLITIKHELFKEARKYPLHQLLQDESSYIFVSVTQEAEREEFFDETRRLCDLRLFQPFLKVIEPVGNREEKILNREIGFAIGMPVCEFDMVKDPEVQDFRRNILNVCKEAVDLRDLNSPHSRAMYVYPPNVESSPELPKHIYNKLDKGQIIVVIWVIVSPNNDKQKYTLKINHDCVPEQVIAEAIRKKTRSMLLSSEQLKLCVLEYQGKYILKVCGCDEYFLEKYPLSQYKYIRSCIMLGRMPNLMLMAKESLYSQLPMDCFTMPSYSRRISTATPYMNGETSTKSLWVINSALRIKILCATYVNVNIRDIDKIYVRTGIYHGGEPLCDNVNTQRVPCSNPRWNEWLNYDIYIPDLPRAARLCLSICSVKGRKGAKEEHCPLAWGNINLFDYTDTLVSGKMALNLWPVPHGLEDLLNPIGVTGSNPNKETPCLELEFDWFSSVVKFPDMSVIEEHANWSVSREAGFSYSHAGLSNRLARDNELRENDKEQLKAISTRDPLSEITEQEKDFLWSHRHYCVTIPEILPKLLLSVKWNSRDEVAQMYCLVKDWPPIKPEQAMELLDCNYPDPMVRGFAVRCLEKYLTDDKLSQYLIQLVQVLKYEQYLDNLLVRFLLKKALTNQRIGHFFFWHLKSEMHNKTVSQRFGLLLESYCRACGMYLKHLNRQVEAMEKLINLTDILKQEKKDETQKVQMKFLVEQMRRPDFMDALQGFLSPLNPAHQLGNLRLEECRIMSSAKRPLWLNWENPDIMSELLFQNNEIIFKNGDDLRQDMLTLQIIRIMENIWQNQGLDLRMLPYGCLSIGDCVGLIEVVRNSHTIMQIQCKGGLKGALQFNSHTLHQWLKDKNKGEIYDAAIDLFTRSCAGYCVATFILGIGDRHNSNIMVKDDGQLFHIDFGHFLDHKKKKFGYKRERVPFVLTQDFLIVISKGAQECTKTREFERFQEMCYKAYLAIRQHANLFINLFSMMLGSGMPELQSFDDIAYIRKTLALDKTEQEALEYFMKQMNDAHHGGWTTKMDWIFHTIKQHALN
T2 sequence (P42338 with tags, fused parts or gaps limits assumed): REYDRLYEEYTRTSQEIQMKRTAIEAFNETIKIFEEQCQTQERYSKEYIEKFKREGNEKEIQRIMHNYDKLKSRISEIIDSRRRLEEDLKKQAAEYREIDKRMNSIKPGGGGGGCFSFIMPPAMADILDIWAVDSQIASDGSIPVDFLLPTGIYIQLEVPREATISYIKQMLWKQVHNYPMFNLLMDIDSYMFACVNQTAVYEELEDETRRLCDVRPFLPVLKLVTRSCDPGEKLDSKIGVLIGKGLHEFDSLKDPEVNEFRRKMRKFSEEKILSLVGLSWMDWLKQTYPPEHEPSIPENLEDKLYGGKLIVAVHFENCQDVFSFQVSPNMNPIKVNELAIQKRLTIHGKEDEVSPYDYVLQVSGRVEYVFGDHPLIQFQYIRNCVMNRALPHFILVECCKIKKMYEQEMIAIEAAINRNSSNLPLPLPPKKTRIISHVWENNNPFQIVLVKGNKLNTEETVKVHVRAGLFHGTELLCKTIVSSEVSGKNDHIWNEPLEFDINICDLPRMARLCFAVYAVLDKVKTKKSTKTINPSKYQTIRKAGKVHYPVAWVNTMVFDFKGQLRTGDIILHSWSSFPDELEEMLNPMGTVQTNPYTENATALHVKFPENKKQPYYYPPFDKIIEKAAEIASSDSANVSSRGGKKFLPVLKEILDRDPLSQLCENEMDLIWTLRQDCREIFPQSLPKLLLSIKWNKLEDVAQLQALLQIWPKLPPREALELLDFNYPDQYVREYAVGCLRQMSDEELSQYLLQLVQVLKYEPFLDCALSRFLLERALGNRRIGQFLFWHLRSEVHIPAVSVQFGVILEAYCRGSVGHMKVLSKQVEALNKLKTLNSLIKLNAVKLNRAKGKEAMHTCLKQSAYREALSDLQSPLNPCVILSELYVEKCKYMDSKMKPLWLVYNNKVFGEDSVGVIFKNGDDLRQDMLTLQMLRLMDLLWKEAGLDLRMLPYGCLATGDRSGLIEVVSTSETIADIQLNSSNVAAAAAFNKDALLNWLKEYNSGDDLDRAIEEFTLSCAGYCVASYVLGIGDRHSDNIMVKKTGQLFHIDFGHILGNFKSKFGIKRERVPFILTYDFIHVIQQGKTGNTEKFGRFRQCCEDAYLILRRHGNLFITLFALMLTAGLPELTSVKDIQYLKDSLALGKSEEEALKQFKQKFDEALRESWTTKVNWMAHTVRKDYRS
T1 sequence (O00329 with tags, fused parts or gaps limits assumed): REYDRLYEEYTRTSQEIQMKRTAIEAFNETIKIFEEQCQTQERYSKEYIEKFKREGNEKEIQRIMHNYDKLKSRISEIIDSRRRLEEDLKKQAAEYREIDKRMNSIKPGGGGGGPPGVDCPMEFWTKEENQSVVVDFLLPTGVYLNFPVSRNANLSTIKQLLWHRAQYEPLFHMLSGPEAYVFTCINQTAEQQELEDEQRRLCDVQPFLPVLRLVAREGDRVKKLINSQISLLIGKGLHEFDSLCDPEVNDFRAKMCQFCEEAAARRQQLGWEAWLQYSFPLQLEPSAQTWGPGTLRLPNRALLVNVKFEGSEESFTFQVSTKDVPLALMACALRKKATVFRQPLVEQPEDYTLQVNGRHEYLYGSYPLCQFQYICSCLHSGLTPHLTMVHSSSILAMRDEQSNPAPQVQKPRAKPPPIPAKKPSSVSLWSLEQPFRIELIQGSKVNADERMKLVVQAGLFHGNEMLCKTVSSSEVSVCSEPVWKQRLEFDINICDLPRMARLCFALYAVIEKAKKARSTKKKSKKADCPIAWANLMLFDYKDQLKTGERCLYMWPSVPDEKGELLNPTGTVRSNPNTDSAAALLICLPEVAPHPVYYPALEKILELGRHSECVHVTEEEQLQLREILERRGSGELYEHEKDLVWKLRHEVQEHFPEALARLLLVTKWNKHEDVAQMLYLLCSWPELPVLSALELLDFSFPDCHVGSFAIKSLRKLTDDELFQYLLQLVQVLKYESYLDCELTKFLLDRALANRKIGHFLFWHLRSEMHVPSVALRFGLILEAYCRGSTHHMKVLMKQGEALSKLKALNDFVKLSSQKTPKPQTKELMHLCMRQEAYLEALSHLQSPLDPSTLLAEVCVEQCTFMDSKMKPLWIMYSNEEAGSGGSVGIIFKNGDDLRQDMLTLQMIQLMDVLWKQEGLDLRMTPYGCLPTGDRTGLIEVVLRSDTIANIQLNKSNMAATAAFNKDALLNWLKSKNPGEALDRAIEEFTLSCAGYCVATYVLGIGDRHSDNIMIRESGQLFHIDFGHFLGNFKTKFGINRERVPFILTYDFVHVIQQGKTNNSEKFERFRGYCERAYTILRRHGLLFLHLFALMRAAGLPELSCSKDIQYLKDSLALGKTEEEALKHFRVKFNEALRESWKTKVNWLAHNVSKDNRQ
T4 sequence (P48736 144-1102 limits assumed): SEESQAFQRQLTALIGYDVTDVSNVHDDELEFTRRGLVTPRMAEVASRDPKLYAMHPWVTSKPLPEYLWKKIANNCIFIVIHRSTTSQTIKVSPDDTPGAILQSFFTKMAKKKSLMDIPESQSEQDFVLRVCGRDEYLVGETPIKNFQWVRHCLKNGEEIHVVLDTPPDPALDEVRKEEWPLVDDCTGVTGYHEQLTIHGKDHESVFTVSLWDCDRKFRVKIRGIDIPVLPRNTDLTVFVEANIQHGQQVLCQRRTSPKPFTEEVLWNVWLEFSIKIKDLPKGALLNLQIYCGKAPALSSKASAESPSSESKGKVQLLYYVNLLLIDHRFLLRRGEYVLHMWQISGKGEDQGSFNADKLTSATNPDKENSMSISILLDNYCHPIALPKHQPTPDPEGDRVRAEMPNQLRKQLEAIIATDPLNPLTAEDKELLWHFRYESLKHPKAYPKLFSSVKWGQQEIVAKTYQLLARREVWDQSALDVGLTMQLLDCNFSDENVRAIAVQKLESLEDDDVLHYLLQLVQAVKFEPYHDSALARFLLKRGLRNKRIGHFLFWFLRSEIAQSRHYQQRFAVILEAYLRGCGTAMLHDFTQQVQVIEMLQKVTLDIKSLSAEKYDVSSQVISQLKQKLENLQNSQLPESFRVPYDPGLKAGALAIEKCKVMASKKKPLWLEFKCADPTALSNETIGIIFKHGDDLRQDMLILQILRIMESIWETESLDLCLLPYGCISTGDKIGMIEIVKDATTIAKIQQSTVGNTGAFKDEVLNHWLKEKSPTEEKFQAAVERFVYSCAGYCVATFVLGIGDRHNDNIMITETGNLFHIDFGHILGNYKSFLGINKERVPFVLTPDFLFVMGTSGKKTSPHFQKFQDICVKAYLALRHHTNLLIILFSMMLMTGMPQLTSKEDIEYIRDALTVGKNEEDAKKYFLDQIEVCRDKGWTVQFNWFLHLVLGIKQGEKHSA

Structure (SMILES) | melting point | pIC50 [1] | pIC50 [2] | pIC50 [3] | pIC50 [4]
Nc1ncc(-c2cnc3ccc(-c4ccc(OCC5(CNC(=O)C6CC6)COC5)cc4)nn23)cc1C(F)(F)F [Example 172, Cyclopropanecarboxylic acid (3-{4-[3-(6-amino-5-trifluoromethyl-pyridin-3-yl)-imidazo[1,2-b]pyridazin-6-yl]-phenoxymethyl}-oxetan-3-ylmethyl)-amide] | 223 to 225 °C | 6.86 | 5.98 | 7.32 | 6.34
Nc1ncc(-c2cnc3ccc(-c4ccc(OCC5(N)COC5)cc4)nn23)cc1C(F)(F)F [Example 147, 5-{6-[4-(3-Amino-oxetan-3-ylmethoxy)-phenyl]-imidazo[1,2-b]pyridazin-3-yl}-3-trifluoromethyl-pyridin-2-yl amine] | 198 to 200 °C | 6.64 | 6.30 | 7.21 | 5.88
COc1ccc(-c2cnn3ccc(-c4ccc(OCCCNC(=O)OC(C)(C)C)c(OC)c4)nc23)cc1OC [Example 25, (3-{4-[3-(3,4-Dimethoxy-phenyl)-pyrazolo[1,5-a]pyrimidin-5-yl]-2-methoxy-phenoxy}-propyl)-carbamic acid tert-butyl ester] | 131 to 133 °C |  |  |  | 
COC(=O)NC1(COc2ccc(-c3ccc4ncc(-c5cnc(N)c(C(F)(F)F)c5)n4n3)cc2)COC1 [Example 148, (3-{4-[3-(6-Amino-5-trifluoromethyl-pyridin-3-yl)-imidazo[1,2-b]pyridazin-6-yl]-phenoxymethyl}-oxetan-3-yl)-carbamic acid methyl ester] | 220 to 222 °C | 6.43 | 5.48 | 7.02 | 6.09
Nc1ncc(-c2ccc3ncc(-c4ccc(CO)cc4)n3n2)cc1C(F)(F)F [Example 168, {4-[6-(6-Amino-5-trifluoromethyl-pyridin-3-yl)-imidazo[1,2-b]pyridazin-3-yl]-phenyl}-methanol] | 290 to 292 °C | 7.85 | 7.60 | 7.96 | 6.23
COC(=O)NCC1(COc2ccc(-c3ccc4ncc(-c5cnc(N)c(C(F)(F)F)c5)n4n3)cc2)COC1 [Example 173, (3-{4-[3-(6-Amino-5-trifluoromethyl-pyridin-3-yl)-imidazo[1,2-b]Pyridazin-6-yl]-phenoxymethyl}-oxetan-3-ylmethyl)-carbamic acid methyl ester] | 179 to 181 °C | 6.95 | 5.99 | 7.41 | 6.29
Nc1ncc(-c2ccc3ncc(-c4ccc(CN5CCC(C(=O)N6CCCCC6)CC5)cc4)n3n2)cc1C(F)(F)F [Example 183, (1-{4-[6-(6-Amino-5-trifluoromethyl-pyridin-3-yl)-imidazo[1,2-b]pyridazin-3-yl]-benzyl}-piperidin-4-yl)-piperidin-1-yl-methanone] | 263 to 266 °C |  |  |  | 
Nc1ncc(-c2ccc3ncc(-c4ccc(CN5CCC(C(=O)N6CCCCCC6)CC5)cc4)n3n2)cc1C(F)(F)F [Example 182, (1-{4-[6-(6-Amino-5-trifluoromethyl-pyridin-3-yl)-imidazo[1,2-b]pyridazin-3-yl]-benzyl}-piperidin-4-yl)-azepan-1-yl-methanone] | 249 to 252 °C |  |  |  | 
COc1cc(-c2cnc3ccc(-c4cnc(N)c(C(F)(F)F)c4)nn23)ccc1OCCCN [Example 37, 5-{3-[4-(3-Amino-propoxy)-3-methoxy-phenyl]-imidazo[1,2-b]pyridazin-6-yl}-3-trifluoro-methyl-pyridin-2-ylamine] |  | 7.14 | 7.27 | 6.96 | 5.95
NCCCOc1ccc(-c2cnc3ccc(-c4cnc(N)c(C(F)(F)F)c4)nn23)cc1 [Example 141, 5-{3-[4-(3-Amino-propoxy)-phenyl]-imidazo [1,2-b]pyridazin-6-yl}-3-trifluoro-methyl-pyridin-2-ylamine] |  | 6.70 | 6.87 | 6.82 | 5.14
Nc1ncc(-c2ccc3ncc(-c4cnc5c(ccn5CCN5CCOCC5)c4)n3n2)cc1C(F)(F)F [Example 126, 5-{3-[1-(2-Morpholin-4-yl-ethyl)-1H-pyrrolo [2,3-b]pyridin-5-yl]-imidazo [1,2-b]pyridazin-6-yl}-3-trifluoro-methyl-pyridin-2-ylamine] |  | 7.66 | 6.86 | 7.18 | 5.99
Nc1cnc(-c2cnc3ccc(-c4cnc(N)c(C(F)(F)F)c4)nn23)cn1 [Example 66, 5-[6-(6-Amino-5-trifluoro-methyl-pyridin-3-yl)-imidazo [1,2-b]pyridazin-3-yl]-pyrazin-2-ylamine] |  | 7.77 | 8.52 | 8.10 | 6.32
Nc1ncc(-c2ccc3ncc(-c4cnc5[nH]ccc5c4)n3n2)cc1C(F)(F)F [Example 41, 5-[3-(1H- Pyrrolo [2,3-b]pyridin-5-yl)-imidazo [1,2-b]pyridazin-6-yl]-3-trifluoro-methyl-pyridin-2-ylamine] |  | 6.68 | 6.67 | 6.58 | 5.79
COc1cccc(-c2ccc3ncc(-c4cnc(N)c(C(F)(F)F)c4)n3n2)c1 [Example 77, 5-[6-(3-Methoxy-phenyl)-imidazo [1,2-b]pyridazin-3-yl]-3-trifluoro-methyl-pyridin-2-ylamine] |  | 6.21 | 5.95 | 6.72 | 5.59
Nc1ncc(-c2cnc3ccc(-c4ccc(OCCCN5CCCC5=O)cc4)nn23)cc1C(F)(F)F [Example 89, 1-(3-{4-[3-(6-Amino-5-trifluoro-methyl-pyridin-3-yl)-imidazo [1,2-b]pyridazin-6-yl]-phenoxy}-propyl)-pyrrolidin-2-one] |  | 7.06 | 5.56 | 7.13 | 6.27
C=CS(=O)(=O)c1ccc(-c2cnc3ccc(-c4cnc(N)c(C(F)(F)F)c4)nn23)cc1 [Example 104, 5-[3-(4-Ethene-sulfonyl-phenyl)-imidazo [1,2-b]pyridazin-6-yl]-3-trifluoro-methyl-pyridin-2-ylamine] |  | 7.68 | 6.84 | 7.57 | 5.85
Nc1ncc(-c2ccc3ncc(-c4ccc(S(N)(=O)=O)cc4)n3n2)cc1C(F)(F)F [Example 121, 4-[6-(6-Amino-5-trifluoro-methyl-pyridin-3-yl)-imidazo [1,2-b]pyridazin-3-yl]-benzene-sulfon-amide] |  | 7.59 | 7.72 | 7.62 | 5.48
COc1cc(-c2cnc3ccc(-c4cnc(N)c(C(F)(F)F)c4)nn23)ccc1C(=O)N1CCN(CCc2ccccn2)CC1 [Example 133, {4-[6-(6-Amino-5-trifluoro-methyl-pyridin-3-yl)-imidazo [1,2-b]pyridazin-3-yl]-2-methoxy-phenyl)-[4-(2-pyridin-2-yl-ethyl)-piperazin-1-yl]-methanone] |  | 7.48 | 6.52 | 7.42 | 5.89
Nc1ncc(-c2ccc3ncc(-c4ccc(C(=O)NCCCN5CCOCC5)cc4F)n3n2)cc1C(F)(F)F [Example 152, 4-[6-(6-Amino-5-trifluoro-methyl-pyridin-3-yl)-imidazo [1,2-b]pyridazin-3-yl]-3-fluoro-N-(3-morpholin-4-yl-propyl)-benzamide] |  | 7.89 | 7.40 | 8.05 | 6.31
NCCCOc1ccc(-c2ccc3ncc(-c4cnc(N)c(C(F)(F)F)c4)n3n2)cn1 [Example 176, 5-{6-[6-(3-Amino-propoxy)-pyridin-3-yl]-imidazo-[1,2b]pyridazin-3-yl}-3-trifluoro-methyl-pyridin-2-ylamine] |  | 7.39 | 7.09 | 7.09 | 5.61
Nc1ncc(-c2ccc3ncc(-c4ccc(C(=O)NCCn5ccnc5)cc4)n3n2)cc1C(F)(F)F [Example 150, 4-[6-(6-Amino-5-trifluoro-methyl-pyridin-3-yl)-imidazo [1,2-b]pyridazin-3-yl]-N-{2-imidazol-1-yl-ethyl)-benzamide] |  | 7.51 | 6.88 | 7.89 | < 5.04
Nc1ncc(-c2cnc3ccc(-c4ccc5c(c4)OCO5)nn23)cc1C(F)(F)F [Example 155, 5-(6-Benzo[1,3]dioxol-5-yl-imidazo [1,2-b]pyridazin-3-yl)-3-trifluoro-methyl-pyridin-2-ylamine] |  | 6.76 | 6.19 | 7.15 | < 5.04
